Results reported in patent publication US20090093539A1, “ANTI-ANGIOGENIC COMPOSITIONS AND METHODS OF USE THEREOF” (priority 2007, published 2009).

Tests used:
Type in all cases: cell-based
[1] = system: HTB 72 (Melanoma) cancer cell line; experiment: inhibition of cancer cell lines in vitro: HTB 72; details: about 2 micrograms per milliliter
From the text: (§1) 15,16-dihyrotanshinone I is also a potent inhibitor of several cancer cell lines in vitro, including the SW480 (Colon Cancer) and the HTB 72 (Melanoma) cancer cell lines. At a very low concentration of about 2 micrograms per milliliter, 100% inhibitions are achieved.

[2] = system: SW480 (Colon Cancer) cancer cell line; experiment: inhibition of cancer cell lines in vitro: SW480; details: about 2 micrograms per milliliter
From the text: as §1

[3] = system: Bovine Cardio-Pulmonary Artery Endothelial (CPAE) cells; experiment: endothelial cell proliferation assay (cellular acid phosphatase readout)
Description: An endothelial cell proliferation assay was carried out according to the procedures of Connally, et al. (1986) (Anal. Biochem. 152:136-140) with modifications (Liang and Wong (2000) ANGIOGENESIS: FROM THE MOLECULAR TO INTEGRATIVE PHARMACOLOGY, edited by Maradoudakis, Kluwer Academic/Plenum Publishers, New York, pp 209-223). Bovine Cardio-Pulmonary Artery Endothelial (CPAE) cells acquired from American Type Culture Collection (ATCC; ATCC No. CCL-209) were grown to nearly 95% confluence in MEM-10E. The cells were released from the tissue culture flask with a 0.25% trypsin solution and plated in 24-well tissue culture plates in the same culture medium at a density of 10,000 cells/well. After the plates were incubated for 8 hours at 37° C. in a 5% carbon dioxide incubator, assay samples and control samples were added. Each sample was loaded in two different wells at 100 μl/well to ensure reproducibility. After incubation with the sample for 60 hours, the medium was aspirated, and the number of cells was measured on the basis of the calorimetric measurement of cellular acid phosphatase.

SMILES: Cc1cccc2c3c(ccc12)C1=C(C(=O)C3=O)C(C)CO1 (stereo not shown) [15,16-dihydrotanshinone I, 15,16-dihydrotanshinone]
- inhibition of HTB 72 (Melanoma) cell line [1]: 100%
- inhibition of SW480 (Colon Cancer) cell line [2]: 100%
- inhibition at 50 µg/mL ([3]; Bos taurus, Endothelial cell, 50 μg/ml, 60 hours incubation, read-out: endothelial cell growth inhibition): 84.4%
- inhibition of endothelial cell proliferation, concentration-dependent study (FIG. 1) ([3]; another 15,16-dihydrotanshinone I sample, result in words): inhibits endothelial cell proliferation in a concentration-dependent manner
